Tests used:
[1] = test system: blackgrass (Alopecurus myosuroides); experiment: Test A postemergence, blackgrass; type: in vivo; conditions: Alopecurus myosuroides, post-emergence, 240 h, 0 to 100 scale (0 no effect, 100 complete control), read-out: Plant response rating, Blackgrass
kochia (Kochia scoparia) [2] = experiment: Test A preemergence, kochia; type: in vivo; conditions: Bassia scoparia, pre-emergence, 240 h, 0 to 100 scale (0 no effect, 100 complete control), read-out: Plant response rating, Kochia
rice (Oryza sativa) = experiment: Test B flooded paddy test, rice; conditions: Oryza sativa, read-out: Plant response rating, Rice (0 to 100 scale, 0 is no effect, 100 is complete control)
[3] = test system: galium (catchweed bedstraw, Galium aparine); experiment: Test A postemergence, galium; type: in vivo; conditions: Galium, post-emergence, 240 h, 0 to 100 scale (0 no effect, 100 complete control), read-out: Plant response rating, Galium
[4] = test system: ragweed (common ragweed, Ambrosia elatior); experiment: Test A postemergence, ragweed; type: in vivo; conditions: Ambrosia artemisiifolia, post-emergence, 240 h, 0 to 100 scale (0 no effect, 100 complete control), read-out: Plant response rating, Ragweed
[5] = test system: wheat (Triticum aestivum); experiment: Test A postemergence, wheat; type: in vivo; conditions: Triticum aestivum, post-emergence, 240 h, 0 to 100 scale (0 no effect, 100 complete control), read-out: Plant response rating, Wheat
[6] = test system: pigweed (Amaranthus retroflexus); experiment: Test A postemergence, pigweed; type: in vivo; conditions: Amaranthus retroflexus, post-emergence, 240 h, 0 to 100 scale (0 no effect, 100 complete control), read-out: Plant response rating, Pigweed
kochia (Kochia scoparia) [7] = experiment: Test A postemergence, kochia; type: in vivo; conditions: Bassia scoparia, post-emergence, 240 h, 0 to 100 scale (0 no effect, 100 complete control), read-out: Plant response rating, Kochia
[8] = test system: barnyardgrass (Echinochloa crus-galli); experiment: Test B flooded paddy test, barnyardgrass; conditions: Echinochloa crus-galli, read-out: Plant response rating, Barnyardgrass (0 to 100 scale, 0 is no effect, 100 is complete control)
[9] = test system: ducksalad (Heteranthera limosa); experiment: Test B flooded paddy test, ducksalad; conditions: Heteranthera limosa, read-out: Plant response rating, Ducksalad (0 to 100 scale, 0 is no effect, 100 is complete control)
[10] = test system: pigweed (Amaranthus retroflexus); experiment: Test A preemergence, pigweed; type: in vivo; conditions: Amaranthus retroflexus, pre-emergence, 240 h, 0 to 100 scale (0 no effect, 100 complete control), read-out: Plant response rating, Pigweed
[11] = test system: foxtail, giant (giant foxtail, Setaria faberii); experiment: Test A preemergence, foxtail, giant; type: in vivo; conditions: Setaria faberi, pre-emergence, 240 h, 0 to 100 scale (0 no effect, 100 complete control), read-out: Plant response rating, Foxtail, Giant
Description: Seeds of plant species selected from barnyardgrass (Echinochloa crus-galli), kochia (Kochia scoparia), ragweed (common ragweed, Ambrosia elatior), ryegrass, Italian (Italian ryegrass, Lolium multiflorum), foxtail, giant (giant foxtail, Setaria faberii), foxtail, green (green foxtail, Setaria viridis) and pigweed (Amaranthus retroflexus) were planted into a blend of loam soil and sand and treated preemergence with a directed soil spray using test chemicals formulated in a non-phytotoxic solvent mixture which included a surfactant.
At the same time, plants selected from these weed species and also wheat (Triticum aestivum), corn (Zea mays), blackgrass (Alopecurus myosuroides), and galium (catchweed bedstraw, Galium aparine) were planted in pots containing the same blend of loam soil and sand and treated with postemergence applications of test chemicals formulated in the same manner. Plants ranged in height from 2 to 10 cm and were in the one- to two-leaf stage for the postemergence treatment. Treated plants and untreated controls were maintained in a greenhouse for approximately 10 days, after which time all treated plants were compared to untreated controls and visually evaluated for injury. […] A dash (-) response means no test result.

[12] = test system: ryegrass, Italian (Italian ryegrass, Lolium multiflorum); experiment: Test A preemergence, ryegrass, Italian; type: in vivo; conditions: Lolium multiflorum, pre-emergence, 240 h, 0 to 100 scale (0 no effect, 100 complete control), read-out: Plant response rating, Ryegrass, Italian
corn (Zea mays) = experiment: Test A postemergence, corn; type: in vivo; conditions: Zea mays, post-emergence, 240 h, 0 to 100 scale (0 no effect, 100 complete control)
[13] = test system: barnyardgrass (Echinochloa crus-galli); experiment: Test A preemergence, barnyardgrass; type: in vivo; conditions: Echinochloa crus-galli, pre-emergence, 240 h, 0 to 100 scale (0 no effect, 100 complete control), read-out: Plant response rating, Barnyardgrass
[14] = test system: barnyardgrass (Echinochloa crus-galli); experiment: Test A postemergence, barnyardgrass; type: in vivo; conditions: Echinochloa crus-galli, post-emergence, 240 h, 0 to 100 scale (0 no effect, 100 complete control), read-out: Plant response rating, Barnyardgrass
[15] = test system: ryegrass, Italian (Italian ryegrass, Lolium multiflorum); experiment: Test A postemergence, ryegrass, Italian; type: in vivo; conditions: Lolium multiflorum, post-emergence, 240 h, 0 to 100 scale (0 no effect, 100 complete control), read-out: Plant response rating, Ryegrass, Italian

FC(F)(F)CCC1COc2cccc(Oc3ncc(Cl)cn3)c21 (stereo not shown) [Compound 36, 5-Chloro-2-[[2,3-dihydro-3-(3,3,3-trifluoropropyl)-4-benzofuranyl]oxy]pyrimidine]
pest or weed control at 31 g/ha ([1]; 31 g ai/ha): 0%
pest or weed control at 125 g/ha ([1]; 125 g ai/ha): 0%
pest or weed control at 31 g/ha (kochia (Kochia scoparia) [2]; 31 g ai/ha): 0%
pest or weed control at 125 g/ha (kochia (Kochia scoparia) [2]; 125 g ai/ha): 0%
plant injury at 250 g/ha (rice (Oryza sativa)): 0%
pest or weed control at 31 g/ha ([3]; 31 g ai/ha): 10%
pest or weed control at 125 g/ha ([3]; 125 g ai/ha): 10%
pest or weed control at 31 g/ha ([4]; 31 g ai/ha): 0%
pest or weed control at 125 g/ha ([4]; 125 g ai/ha): 0%
plant injury at 31 g/ha ([5]; 31 g ai/ha): 0%
plant injury at 125 g/ha ([5]; 125 g ai/ha): 0%
pest or weed control at 31 g/ha ([6]; 31 g ai/ha): 10%
pest or weed control at 125 g/ha ([6]; 125 g ai/ha): 10%
pest or weed control at 31 g/ha (kochia (Kochia scoparia) [7]; 31 g ai/ha): 30%
pest or weed control at 125 g/ha (kochia (Kochia scoparia) [7]; 125 g ai/ha): 50%
pest or weed control at 250 g/ha [8]: 0%
pest or weed control at 250 g/ha [9]: 50%
pest or weed control at 31 g/ha ([10]; 31 g ai/ha): 0%
pest or weed control at 125 g/ha ([10]; 125 g ai/ha): 0%
pest or weed control at 31 g/ha ([11]; 31 g ai/ha): 0%
pest or weed control at 125 g/ha ([11]; 125 g ai/ha): 60%
pest or weed control at 31 g/ha ([12]; 31 g ai/ha): 0%
pest or weed control at 125 g/ha ([12]; 125 g ai/ha): 0%
Corn plant response rating (crop injury, 0 = no effect, 100 = complete kill) at 31 g/ha (corn (Zea mays); 31 g ai/ha): 0%
Corn plant response rating (crop injury, 0 = no effect, 100 = complete kill) at 125 g/ha (corn (Zea mays); 125 g ai/ha): 0%
pest or weed control at 31 g/ha ([13]; 31 g ai/ha): 0%
pest or weed control at 125 g/ha ([13]; 125 g ai/ha): 0%
pest or weed control at 31 g/ha ([14]; 31 g ai/ha): 0%
pest or weed control at 125 g/ha ([14]; 125 g ai/ha): 10%
pest or weed control at 31 g/ha ([15]; 31 g ai/ha): 0%
pest or weed control at 125 g/ha ([15]; 125 g ai/ha): 0%
